# Data from patent publication US4873245A, “Isolation and structural elucidation of cephalostatins 1-4” (Arizona Board of Regents, priority 1988, dated 1989).
# Like-named read-outs stand apart in the source and are kept apart here.
# Legend:
# [1] = test system: murine P388 lymphocytic leukemia; assay: U.S. National Cancer Institute's murine P388 lymphocytic leukemia (PS system), life extension of host; type: in vivo; settings: for activity against murine P388 lymphocytic leukemia (PS system), in words: mouse, in vivo
# [2] = test system: P388 lymphocytic leukemia cell line; assay: PS in vitro: growth inhibition of P388 lymphocytic leukemia cell line, standard N.C.I. protocol; type: cell-based, murine
# Description: Cephalostatin 1 was placed against the P388 lymphocytic leukemia cell line using standard National Cancer Institute ("N.C.I.") protocol with the following results:
# Cephalostatin 2 was placed against the P388 lymphocytic leukemia cell line using standard National Cancer Institute ("N.C.I.") protocol with the following results:
# Cephalostatin 3 was placed against the P388 lymphocytic leukemia cell line using standard National Cancer Institute ("N.C.I.") protocol with the following results:
# Cephalostatin 4 was placed against the P388 lymphocytic leukemia cell line using standard National Cancer Institute ("N.C.I.") protocol with the following results: […]
Structure (SMILES),Life Extension ([1]; 40 μg/Kg host body weight) [%],"activity against murine P388 lymphocytic leukemia (PS system), in words [1]",ED50 (PS cell line) [2],Life Extension ([1]; 100 μg/Kg host body weight) [%],ED50 (PS cell line) ([2]; listed as cephalostatin 4)
C[C@@H]1[C@]2(O[C@H]3C=C4[C@@H]5CC[C@H]6Cc7nc8c(nc7C[C@]6(C)[C@H]5C[C@@H](O)[C@]4(C)[C@]31O)C[C@@H]1CC[C@H]3C4=CC[C@@H]5[C@H](C)[C@@]6(OC[C@]45C(=O)C[C@@H]3[C@@]1(C)C8)OC(C)(C)C[C@H]6O)O[C@](C)(CO)C[C@H]2O [Cephalostatin 1],31,confirmed active level,10^-7 to 10^-9 μg/ml,–,–
C[C@@H]1[C@]2(O[C@H]3C=C4[C@@H]5CC[C@H]6Cc7nc8c(nc7C[C@]6(C)[C@H]5C[C@@H](O)[C@]4(C)[C@]31O)C[C@@H]1CC[C@H]3C4=CC[C@@H]5[C@H](C)[C@@]6(OC[C@]45C(=O)C[C@]3(O)[C@@]1(C)C8)OC(C)(C)C[C@H]6O)O[C@](C)(CO)C[C@H]2O [Cephalostatin 2],35,confirmed active level,10^-7 to 10^-9 μg/ml,–,–
C[C@@H]1[C@]2(O[C@H]3C=C4[C@@H]5CC[C@H]6Cc7nc8c(nc7C[C@]6(C)[C@H]5C[C@@H](O)[C@]4(C)[C@]31O)C[C@@H]1CC[C@H]3C4=CC[C@@H]5[C@H](C)[C@@]6(OC[C@]45C(=O)C[C@]3(O)[C@@]1(C)C8)OC(C)(C)[C@@H](C)[C@H]6O)O[C@](C)(CO)C[C@H]2O [Cephalostatin 3],30,confirmed active level,10^-7 to 10^-9 μg/ml,–,–
C[C@@H]1[C@]2(O[C@H]3C=C4[C@@H]5CC[C@H]6Cc7nc8c(nc7C[C@]6(C)[C@H]5C[C@@H](O)[C@]4(C)[C@]31O)C[C@@H]1CC[C@H]3[C@@]45O[C@@H]4C[C@@H]4[C@H](C)[C@@]6(OC[C@@]45C(=O)C[C@]3(O)[C@@]1(C)C8)OC(C)(C)C[C@H]6O)O[C@](C)(CO)C[C@H]2O [Cephalostatin 4],–,confirmed active level,0.00055 µg/mL,25,10^-7 to 10^-9 μg/ml
